Source: US11040976B2, “Substrate selective inhibitors of insulin-degrading enzyme (IDE) and uses thereof” (President and Fellows of Harvard College, priority 2015, dated 2021)

Experiments:
[1] = target: T1, recombinant human IDE42-1019 (Homo sapiens, UniProt P14735); assay: Protease assay with fluorogenic peptide substrate Mca-[…](Dnp)-OH; type: biochemical; details: fluorogenic peptide Mca-RPPGFSAFK(Dnp)-OH; for IC50: apparent IC50 for compounds with submaximal inhibition, read-out: IC50 (μM) Proteolysis; for Emax: plateau at high inhibitor concentration, read-out: Imax (%) Proteolysis (inhibition maximum)
T1 construct: recombinant human IDE42-1019 (R&D Systems); purchased R&D Systems
T1 sequence (P14735 42-1019): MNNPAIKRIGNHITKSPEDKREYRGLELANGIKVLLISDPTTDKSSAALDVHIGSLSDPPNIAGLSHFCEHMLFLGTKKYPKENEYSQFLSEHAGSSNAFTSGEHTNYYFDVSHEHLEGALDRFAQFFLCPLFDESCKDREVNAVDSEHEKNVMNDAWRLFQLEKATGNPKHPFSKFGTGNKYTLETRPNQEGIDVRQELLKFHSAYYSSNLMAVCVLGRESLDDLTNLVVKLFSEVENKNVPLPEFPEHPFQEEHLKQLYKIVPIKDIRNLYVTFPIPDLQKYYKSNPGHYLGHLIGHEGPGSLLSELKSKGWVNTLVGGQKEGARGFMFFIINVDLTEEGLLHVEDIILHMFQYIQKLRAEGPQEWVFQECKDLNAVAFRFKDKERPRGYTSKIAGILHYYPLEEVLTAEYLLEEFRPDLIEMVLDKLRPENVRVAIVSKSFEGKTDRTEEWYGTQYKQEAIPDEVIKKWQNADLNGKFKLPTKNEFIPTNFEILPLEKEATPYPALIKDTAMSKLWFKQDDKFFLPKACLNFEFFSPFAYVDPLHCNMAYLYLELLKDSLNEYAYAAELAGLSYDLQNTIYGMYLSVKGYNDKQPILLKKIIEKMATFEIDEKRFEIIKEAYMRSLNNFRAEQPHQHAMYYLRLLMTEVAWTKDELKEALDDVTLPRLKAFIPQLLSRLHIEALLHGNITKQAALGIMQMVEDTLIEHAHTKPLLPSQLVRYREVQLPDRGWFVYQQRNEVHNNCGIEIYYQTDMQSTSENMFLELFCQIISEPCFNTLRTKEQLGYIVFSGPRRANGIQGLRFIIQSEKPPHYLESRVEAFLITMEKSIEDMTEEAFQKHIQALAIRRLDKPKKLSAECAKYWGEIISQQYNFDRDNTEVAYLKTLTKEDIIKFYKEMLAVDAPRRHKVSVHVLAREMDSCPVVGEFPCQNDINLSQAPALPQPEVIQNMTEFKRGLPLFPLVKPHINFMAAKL
Method: The proteases IDE42-1019, recombinant human IDE42-1019 (R&D Systems), neprilysin (R&D), and angiotensin-converting enzyme (R&D) were assayed using the fluorophore/quencher-tagged peptide substrate Mca-[…](Dnp)-OH (SEQ ID NO: 24) (R&D) according to the manufacturer's instructions and using the recommended buffers (fluorophore Mca=(7-methoxycourmarin-4-yl)acetyl and quencher Dnp=2,4-dinitrophenyl). For IDE the recommended buffer is 50 mM Tris pH 7.5, 1 M NaCl. The enzyme mixtures (48 μL) were transferred to a 96-well plate and combined with 2 μL of inhibitor in DMSO solutions, in 3-fold dilution series. The mixtures were allowed to equilibrate for 10 minutes and the enzymatic reaction was started by addition of substrate peptide in assay buffer (50 μL), mixed, and monitored on a fluorescence plate reader (excitation at 320 nm, emission at 405 nm). Similarly, thimet oligopeptidase (R&D) and neurolysin (R&D) were assayed using substrate Mca-PLGPK(Dnp)-OH (SEQ ID NO: 25) (R&D) according to the manufacturer's instructions and using the recommended buffers. Matrix metalloproteinase-1 (R&D) was activated and assayed according to the manufacturer's instructions with substrate Mca-KPLGL-Dpa-AR-NH2 (SEQ ID NO: 20) (R&D) (quencher DPA=N-3-(2,4,dinitrophenyl)-L-2,3-diaminopropionyl). All assay data points were obtained in duplicate.

[2] = target: T2, Human N-His6-IDE42-1019 (E. coli expressed) (Homo sapiens, UniProt P14735); assay: Fluorescence anisotropy high-throughput screening assay (displacement of probe FL-6b); type: binding
T2 construct: Human N-His6-IDE42-1019 (E. coli expressed); made in house; host or cells: E. coli (Rosetta 2 (DE3) pLysS, plasmid pTrcHis-A)
T2 sequence (P14735 42-1019): T1 sequence (P14735 42-1019)
Method: The fluorescence anisotropy screening method and probe FL-6b are described in PCT application PCT/US2014/064322, incorporated herein by reference.
Human N-His6-IDE42-1019 (E. coli expressed) was mixed with fluorescein-labeled macrocycle FL-6b:
[drawing 802] in 50 mM Tris buffer pH 8.0, with 1 M NaCl, at 25° C. Optimum signal was obtained using a mixture of […] probe FL-6b and 0.5 μM IDE. The “diversity-oriented (DOS) synthesis informer set” compound plates were pinned onto 384-well plates containing the enzyme-probe mixture (50 μL/well). The azetidine screen was pre-printed on 384-well plates and the enzyme-probe mixture was added (50 μL/well). The final compound concentration was 20 μM. IDE inhibitor 6bK was used as a positive control at a final concentration of 1 μM. After 30 minutes of equilibration, the increase in fluorescence anisotropy was recorded using an EnVision spectrophotometer (excitation 492 nm, emission 523 nm). The fluorescence anisotropy was independently measured twice for each screened compound. The Z-scores for each pair of measurements are plotted in FIG. 1A (DOS informer set) and FIG. 1B (azetidines), and average Z-scores are listed for exemplary compounds in Table E1.
Z-scores were calculated based on the raw anisotropy measured for each well according to Eq. 1, wherein x is the raw anisotropy value of the well, μ is the mean of the anisotropy of the negative control wells (DMSO) for the plate, and σ is the standard deviation in anisotropy of the negative control wells (DMSO) for the plate.

[3] = final compound concentration 20 μM (6bK control 1 μM), values without asterisk
[4] = values marked *: from the screen using the diversity-oriented synthesis (DOS) informer set of plates, 20 μM

| Structure (SMILES) | IC50 [1] [µM] | Emax [1] [%] | also measured |
| --- | --- | --- | --- |
| Cc1ccccc1-c1ccc(C2C3CN(C(=O)c4cnccn4)CC2N3)cc1 (stereo not drawn) [C1] | 2 | 70 | Average Z-score (Fluorescence anisotropy) [2, 3]: −20.0 |
| Cc1ccccc1-c1ccc(C2C3CN(S(=O)(=O)c4cn(C)cn4)CC2N3)cc1 (stereo not drawn) [C2] | 7 | 50 | Average Z-score (Fluorescence anisotropy) [2, 3]: −16.62 |
| Cc1ccccc1-c1ccc(C2C3CN(Cc4cccnc4)CC2N3)cc1 (stereo not drawn) [C5] | – | – | Average Z-score (Fluorescence anisotropy) [2, 3]: −13.95 |
| COc1ccccc1-c1ccc([C@@H]2[C@@H](C#N)N(C(=O)C3CC3)[C@@H]2CO)cc1 [D1] | – | – | Average Z-score (Fluorescence anisotropy) [2, 3]: −16.97 |
| COc1ccccc1-c1ccc([C@H]2[C@H](C#N)N[C@@H]2CO)cc1 [D7] | – | – | Average Z-score (Fluorescence anisotropy) [2, 3]: −10.49 |
| COc1cccc(C#Cc2ccc([C@@H]3[C@H](CO)N4C(=O)CN(C(=O)Cc5cccnc5)C[C@@H]34)cc2)c1 [compound 089] | – | – | Average Z-score (Fluorescence anisotropy) [2, 3]: −4.11 |
| Cc1cccc(-c2ccc([C@H]3[C@H](CO)N4C(=O)CN(C(=O)NC5CCCCC5)C[C@@H]34)cc2)c1 [compound 130] | > 5 | 60 | – |
| CCCNC(=O)N1CC(=O)N2[C@@H](CO)[C@H](c3ccc(-c4cccc(C)c4)cc3)[C@@H]2C1 [compound 231] | 2.5 | 60 | – |
| Cc1cccc(-c2ccc([C@@H]3[C@@H](CO)N4CCCCN(C(=O)c5ccc6c(c5)OCO6)C[C@@H]34)cc2)c1 [compound 291] | > 200 | – | – |
| COC[C@H]1[C@H](c2ccc(C#Cc3ccccc3F)cc2)[C@@H]2CN(C(=O)NC(C)C)CCCCN12 [compound 304] | 2 | 80 | – |
| O=C(NC1CCCC1)N1CCCCN2[C@@H](CO)[C@H](c3ccc(/C=C/c4ccccc4)cc3)[C@@H]2C1 [compound 346] | 1.5 | 80 | – |
| Cc1ccccc1-c1ccc([C@@H]2[C@H](CO)N3CCCCN(C(=O)Cc4ccccn4)C[C@@H]23)cc1 [compound 469] | – | 80 | – |
| Cc1ccccc1-c1ccc([C@H]2[C@H]3CN(C(=O)NC4CCCC4)CC(=O)N3[C@H]2CO)cc1 [compound 612] | – | 50 | – |
| COc1cccc(-c2ccc([C@@H]3[C@@H](CO)N4CCCCN(CC5CCOCC5)C[C@@H]34)cc2)c1 [compound 644] | > 100 | – | – |
| OC[C@H]1[C@@H](c2ccc(C#Cc3ccccc3F)cc2)[C@@H]2CN(Cc3cncnc3)CCCCN12 [compound 683] | 7 | 80 | – |
| Cc1cccc(-c2ccc([C@@H]3[C@@H](CO)N4CCCCN(S(=O)(=O)c5ccccc5F)C[C@@H]34)cc2)c1 [compound 688] | – | – | Average Z-score (Fluorescence anisotropy) [2, 4]: −27.23* |
| CCCNC(=O)N1CC(=O)N2[C@H](CO)[C@H](c3ccc(-c4cccc(C)c4)cc3)[C@@H]2C1 [compound 782] | – | – | Average Z-score (Fluorescence anisotropy) [2, 3]: −16.08 |
| O=C(NC1CCCC1)N1CCCCN2[C@@H](CO)[C@H](c3ccc(/C=C/c4ccccc4)cc3)[C@@H]2C1 [compound 900] | > 7.5 | – | – |
| COc1ccccc1C#Cc1ccc([C@@H]2[C@H](CO)N3CCCCN(C(=O)C4CCC4)C[C@@H]23)cc1 [compound 930] | – | – | Average Z-score (Fluorescence anisotropy) [2, 4]: −10.53* |
| Cc1ccccc1-c1ccc([C@@H]2[C@H](CO)N3C(=O)CN(C(=O)NC4CCCC4)C[C@@H]23)cc1 [compound 1576] | 2.5 | 60 | – |

The next lines start with results.

| IC50 [1] [µM] | Emax [1] [%] | Structure (SMILES) | also measured |
| --- | --- | --- | --- |
| – | 65 | Cc1ccccc1S(=O)(=O)N1CCCCN2C(C1)[C@H](c1ccc(-c3cccc(F)c3)cc1)[C@H]2CO (stereo partly drawn) [K11] | – |
| 2.5 | – | Cc1ccccc1S(=O)(=O)N1CCCCN2[C@H](CO)[C@@H](c3ccc(-c4cccc(F)c4)cc3)[C@@H]2C1 [K11] | – |
| – | 65 | Cc1ccccc1-c1ccc([C@H]2C3CN(S(=O)(=O)c4ccccc4C)CCCCN3[C@@H]2CO)cc1 (stereo partly drawn) [K12] | – |
| 0.09 | – | Cc1ccc(C)c(-c2ccc([C@@H]3[C@@H](CO)N4CCCCN(S(=O)(=O)c5ccccc5C)C[C@@H]34)cc2)c1 [K13] | – |
| – | 65 | Cc1ccc(C)c(-c2ccc([C@H]3C4CN(S(=O)(=O)c5ccccc5C)CCCCN4[C@@H]3CO)cc2)c1 (stereo partly drawn) [K13] | – |
| 0.3 | 65 | COc1ccccc1-c1ccc([C@H]2C3CN(S(=O)(=O)c4ccccc4C)CCCCN3[C@@H]2CO)cc1 (stereo partly drawn) [K14] | – |
| – | 90 | Cc1ccccc1S(=O)(=O)N1CCCCN2C(C1)[C@H](c1ccc(-c3cccc(F)c3F)cc1)[C@H]2CO (stereo partly drawn) [K15] | – |
| 0.8 | – | Cc1ccccc1S(=O)(=O)N1CCCCN2[C@H](CO)[C@@H](c3ccc(-c4cccc(F)c4F)cc3)[C@@H]2C1 [K15] | – |
| 0.8 | – | COc1ccc(C)cc1-c1ccc([C@@H]2[C@@H](CO)N3CCCCN(S(=O)(=O)c4ccccc4C)C[C@@H]23)cc1 [K16] | – |
| 0.9 | – | COc1ccc(-c2ccc([C@@H]3[C@@H](CO)N4CCCCN(S(=O)(=O)c5ccccc5C)C[C@@H]34)cc2)c(C)c1 [K17] | – |
| 0.1 | – | Cc1c(-c2ccc([C@@H]3[C@@H](CO)N4CCCCN(S(=O)(=O)c5ccccc5C(F)(F)F)C[C@@H]34)cc2)cccc1C(F)(F)F [K19] | – |
| 0.1 | – | Cc1ccccc1S(=O)(=O)N1CCCCN2[C@H](CO)[C@@H](c3ccc(-c4cccc(F)c4C)cc3)[C@@H]2C1 [K20] | – |
| 0.008 | – | O=S(=O)(c1ccccc1C(F)(F)F)N1C/C=C\CN2C(C1)[C@H](c1ccc(-c3cccc(Cl)c3Cl)cc1)[C@H]2CO (stereo partly drawn) [K21] | – |
| 0.01 | – | Cc1c(Cl)cccc1-c1ccc([C@H]2C3CN(S(=O)(=O)c4ccccc4C(F)(F)F)C/C=C\CN3[C@@H]2CO)cc1 (stereo partly drawn) [K22] | – |
| 0.3 | – | Cc1ccccc1S(=O)(=O)N1CCCCN2[C@H](CO)[C@@H](c3ccc(-c4cccc(F)c4C(F)(F)F)cc3)[C@@H]2C1 [K23] | – |
| 0.3 | – | Cc1ccccc1S(=O)(=O)N1CCCCN2[C@H](CO)[C@@H](c3ccc(-c4ccc(F)c(F)c4C)cc3)[C@@H]2C1 [K24] | – |
| – | 100 | Cc1ccccc1S(=O)(=O)N1CCCCN2C(C1)[C@H](c1ccc(-c3cnc(F)c(C)c3)cc1)[C@H]2CO (stereo partly drawn) [K26] | – |
| 4 | – | Cc1ccccc1S(=O)(=O)N1CCCCN2[C@H](CO)[C@@H](c3ccc(-c4cnc(F)c(C)c4)cc3)[C@@H]2C1 [K26] | – |
| 0.05 | – | Cc1ccccc1S(=O)(=O)N1CCCCN2[C@H](CF)[C@@H](c3ccc(-c4cccc(C)c4C)cc3)[C@@H]2C1 [K28] | – |
| 0.25 | – | Cc1cccc(-c2ccc([C@H]3C4CN(S(=O)(=O)c5ccccc5C)CCCCN4[C@@H]3CN)cc2)c1 (stereo partly drawn) [K29] | – |
